Source: ChEMBL document CHEMBL1134894, “Fused azaindole derivatives: molecular design, synthesis and in vitro pharmacology leading to the preferential dopamine D3 receptor agonist FAUC 725” (Bioorg Med Chem Lett, 2002)

Key:
D(4) dopamine receptor [1] = target: T1, D(4) dopamine receptor (Homo sapiens, UniProt P21917); assay: Effective concentration required for agonistic activity against human D4.2 receptor; type: functional
T1 sequence (P21917 whole entry): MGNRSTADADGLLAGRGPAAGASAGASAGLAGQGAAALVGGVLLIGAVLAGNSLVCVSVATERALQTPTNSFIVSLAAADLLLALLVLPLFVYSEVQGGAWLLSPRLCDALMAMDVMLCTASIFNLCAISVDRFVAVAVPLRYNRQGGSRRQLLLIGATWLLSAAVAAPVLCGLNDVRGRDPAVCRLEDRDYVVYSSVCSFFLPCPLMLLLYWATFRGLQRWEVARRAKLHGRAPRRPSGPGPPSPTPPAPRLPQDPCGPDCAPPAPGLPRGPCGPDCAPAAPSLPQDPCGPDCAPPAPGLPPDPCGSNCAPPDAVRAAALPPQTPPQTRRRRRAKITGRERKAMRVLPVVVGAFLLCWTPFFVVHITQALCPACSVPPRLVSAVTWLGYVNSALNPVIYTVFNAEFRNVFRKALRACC

D(4) dopamine receptor [2] = target: T1, D(4) dopamine receptor; assay: Binding affinity of compound measured using [3H]spiperone for the cloned human dopamine receptor D4.4 (high/low affinity is given as 16/1300)
D(2) dopamine receptor [3] = target: T2, D(2) dopamine receptor (Bos taurus, UniProt P20288); assay: Binding affinity of compound against Dopamine receptor D2 was measured using [3H]pramipexole in Bovine striatal membranes; type: cell membranes, Striatum, Membrane
T2 sequence (P20288 whole entry): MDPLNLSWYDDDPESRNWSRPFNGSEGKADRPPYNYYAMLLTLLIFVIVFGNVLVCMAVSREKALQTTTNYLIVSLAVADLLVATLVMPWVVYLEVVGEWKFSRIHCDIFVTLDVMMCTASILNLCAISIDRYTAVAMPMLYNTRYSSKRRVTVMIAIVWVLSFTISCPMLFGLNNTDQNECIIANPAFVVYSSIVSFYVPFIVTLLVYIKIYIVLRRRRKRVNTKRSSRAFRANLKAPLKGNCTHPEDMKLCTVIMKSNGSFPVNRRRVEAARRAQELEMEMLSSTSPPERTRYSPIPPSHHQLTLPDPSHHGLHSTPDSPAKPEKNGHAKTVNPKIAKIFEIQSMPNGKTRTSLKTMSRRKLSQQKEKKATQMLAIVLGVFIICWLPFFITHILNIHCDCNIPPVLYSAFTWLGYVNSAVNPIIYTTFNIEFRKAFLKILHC

D(2) dopamine receptor [4] = target: T2, D(2) dopamine receptor
D(2) dopamine receptor [5] = target: T3, D(2) dopamine receptor (Homo sapiens, UniProt P14416); assay: Binding affinity of compound measured using [3H]spiperone for the cloned human dopamine receptor D2 short (high/low affinity is given as 130/50000)
T3 sequence (P14416 whole entry): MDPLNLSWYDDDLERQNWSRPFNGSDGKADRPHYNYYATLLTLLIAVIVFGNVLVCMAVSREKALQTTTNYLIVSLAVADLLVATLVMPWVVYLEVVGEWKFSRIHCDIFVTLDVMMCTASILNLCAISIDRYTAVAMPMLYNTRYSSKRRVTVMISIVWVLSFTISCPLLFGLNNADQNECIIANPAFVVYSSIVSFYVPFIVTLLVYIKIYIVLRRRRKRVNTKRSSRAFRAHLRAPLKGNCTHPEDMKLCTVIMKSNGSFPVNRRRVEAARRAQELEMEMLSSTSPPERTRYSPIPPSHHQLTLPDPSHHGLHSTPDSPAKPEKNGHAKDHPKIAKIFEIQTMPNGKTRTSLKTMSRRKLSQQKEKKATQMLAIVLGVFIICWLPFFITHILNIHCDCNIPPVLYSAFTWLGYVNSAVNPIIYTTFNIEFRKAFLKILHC

D(2) dopamine receptor [6] = target: T4, D(2) dopamine receptor (Rattus norvegicus, UniProt P61169); assay: Effective concentration required for agonistic activity against rat D2 short receptor; type: functional
T4 sequence (P61169 whole entry): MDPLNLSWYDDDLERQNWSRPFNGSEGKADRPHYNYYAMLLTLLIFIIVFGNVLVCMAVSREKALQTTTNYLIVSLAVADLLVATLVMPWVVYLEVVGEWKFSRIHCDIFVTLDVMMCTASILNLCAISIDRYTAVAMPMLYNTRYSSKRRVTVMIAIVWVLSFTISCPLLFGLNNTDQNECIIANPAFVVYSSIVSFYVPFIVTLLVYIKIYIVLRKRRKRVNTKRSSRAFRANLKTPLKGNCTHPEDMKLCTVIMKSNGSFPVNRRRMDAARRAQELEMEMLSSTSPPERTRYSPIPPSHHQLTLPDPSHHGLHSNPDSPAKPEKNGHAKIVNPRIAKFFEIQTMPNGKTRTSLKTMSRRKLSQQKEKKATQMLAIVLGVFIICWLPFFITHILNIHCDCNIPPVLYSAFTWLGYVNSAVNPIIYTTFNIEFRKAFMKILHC

D(4) dopamine receptor [7] = target: T1, D(4) dopamine receptor; assay: Binding affinity of compound measured using [3H]spiperone for the cloned human dopamine receptor D4.4 (high/low affinity is given as 87/23000)
D(3) dopamine receptor [8] = target: T5, D(3) dopamine receptor (Homo sapiens, UniProt P35462); assay: Effective concentration required for agonistic activity against human D3 receptor; type: functional
T5 sequence (P35462 whole entry): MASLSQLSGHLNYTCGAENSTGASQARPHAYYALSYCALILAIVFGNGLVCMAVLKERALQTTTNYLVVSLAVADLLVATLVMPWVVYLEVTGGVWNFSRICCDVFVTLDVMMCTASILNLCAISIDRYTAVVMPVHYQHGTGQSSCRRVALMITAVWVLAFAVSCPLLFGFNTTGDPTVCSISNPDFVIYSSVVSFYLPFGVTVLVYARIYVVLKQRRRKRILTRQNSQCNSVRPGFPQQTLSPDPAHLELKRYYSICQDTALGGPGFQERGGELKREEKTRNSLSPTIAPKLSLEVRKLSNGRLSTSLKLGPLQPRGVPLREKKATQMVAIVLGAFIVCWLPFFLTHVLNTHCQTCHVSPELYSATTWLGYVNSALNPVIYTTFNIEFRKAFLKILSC

D(2) dopamine receptor [9] = target: T3, D(2) dopamine receptor; assay: Binding affinity of compound measured using [3H]spiperone for the cloned human dopamine receptor D2 long (high/low affinity is given as 230/53000)
D(2) dopamine receptor [10] = target: T4, D(2) dopamine receptor; assay: Effective concentration required for agonistic activity against rat D2 long receptor; type: functional
D(1A) dopamine receptor = D(1A) dopamine receptor (Bos taurus, UniProt Q95136); assay: Binding affinity of compound measured against Dopamine receptor D1 from bovine striatal membranes using radioligand [3H]-SCH- 23390
Sequence of D(1A) dopamine receptor (Q95136 whole entry): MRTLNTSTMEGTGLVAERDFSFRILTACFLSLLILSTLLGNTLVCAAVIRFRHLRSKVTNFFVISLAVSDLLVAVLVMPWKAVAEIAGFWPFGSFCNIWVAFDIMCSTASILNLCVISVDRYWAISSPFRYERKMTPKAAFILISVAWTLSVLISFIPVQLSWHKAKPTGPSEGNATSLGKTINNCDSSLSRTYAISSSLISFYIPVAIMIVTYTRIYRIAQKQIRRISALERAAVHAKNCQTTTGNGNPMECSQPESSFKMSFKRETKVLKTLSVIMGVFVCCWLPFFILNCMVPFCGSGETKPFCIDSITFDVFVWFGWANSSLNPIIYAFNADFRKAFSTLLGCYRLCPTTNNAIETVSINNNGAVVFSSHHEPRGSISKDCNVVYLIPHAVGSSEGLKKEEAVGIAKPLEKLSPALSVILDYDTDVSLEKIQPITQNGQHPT

D(3) dopamine receptor [11] = target: T5, D(3) dopamine receptor
Description: Binding affinity of compound measured using [3H]spiperone for the cloned human Dopamine receptor D3 (high/low affinity is given as 16/16000)

D(2) dopamine receptor [12] = target: T4, D(2) dopamine receptor; assay: Effective concentration required for agonistic activity against rat Dopamine receptor D2L; type: functional
D(4) dopamine receptor [13] = target: T1, D(4) dopamine receptor; assay: Binding affinity of compound measured using [3H]spiperone for the cloned human dopamine receptor D4.4 (high/low affinity is given as 50/2200)
D(2) dopamine receptor [14] = target: T3, D(2) dopamine receptor; assay: Binding affinity of compound measured using [3H]spiperone for the cloned human Dopamine receptor D2L (high/low affinity is given as 85/6400)
D(2) dopamine receptor [15] = target: T3, D(2) dopamine receptor; assay: Binding affinity of compound measured using [3H]spiperone for the cloned human dopamine receptor D2 short (high/low affinity is given as 35/3700)
D(3) dopamine receptor [16] = target: T5, D(3) dopamine receptor; assay: Effective concentration required for agonistic activity against human Dopamine receptor D3
D(3) dopamine receptor [17] = target: T5, D(3) dopamine receptor; remark: listed apart in the source

## CCCN1CCC[C@@H](c2cccc(O)c2)C1 [PRECLAMOL]
D(4) dopamine receptor [1]
  EC50: 0.06 µM
D(4) dopamine receptor [2]
  Ki: 0.016 µM
D(2) dopamine receptor [3]
  Ki: 0.052 µM

## CCCN[C@H]1CCc2nc(N)sc2C1 [PRAMIPEXOLE]
D(2) dopamine receptor [4]
  Kd: 0.0016 µM

## CCCN1CCc2nn3ccccc3c2C1
D(2) dopamine receptor [5]
  Ki: 0.13 µM
D(2) dopamine receptor [6]
  EC50: > 1 µM
D(4) dopamine receptor [7]
  Ki: 0.087 µM
D(3) dopamine receptor [8]
  EC50: > 1 µM
D(2) dopamine receptor [9]
  Ki: 0.23 µM
D(4) dopamine receptor [1]
  EC50: > 1 µM
D(2) dopamine receptor [10]
  EC50: > 1 µM
D(2) dopamine receptor [3]
  Ki: 3.1 µM
D(1A) dopamine receptor
  Ki: 21 µM
D(3) dopamine receptor [11]
  Ki: 0.016 µM

## CCCN(CCC)[C@H]1CCc2nn3ccccc3c2C1
D(2) dopamine receptor [6]
  EC50: 0.047 µM
D(2) dopamine receptor [12]
  EC50: 0.016 µM
D(4) dopamine receptor [13]
  Ki: 0.05 µM
D(4) dopamine receptor [1]
  EC50: 0.43 µM
D(2) dopamine receptor [3]
  Ki: 0.0086 µM
D(2) dopamine receptor [14]
  Ki: 0.085 µM
D(2) dopamine receptor [15]
  Ki: 0.035 µM
D(1A) dopamine receptor
  Ki: 18 µM
D(3) dopamine receptor [16]
  EC50: 0.0028 µM
D(3) dopamine receptor [17]
  Ki: 0.00054 µM
